Measured values taken from patent publication US8835631B2, “Therapeutic agent for cerebral infarction” (Mitsubishi Tanabe Pharma Corporation, priority 2007, dated 2014).

Columns and labels:
MCP-1 = MCP-1 production in LPS-administered mouse; type: in vivo, male BALB/c mouse; settings: for MCP-1 production (%): 10 mg/kg orally 30 min before LPS 500 μg/kg i.p., plasma 90 min after LPS, ratio to group without test compound
Method: LPS (lipopolysaccharide, derived from E. coli 0111:B4, Sigma, 500 μg/kg) was intraperitoneally administered to male BALB/c mouse (Charles River Laboratories Japan). After 90 min after LPS administration, the blood was taken under anesthesia, and centrifuged to collect plasma. TNF-α was measured using an Immunoassay Kit (R&D Systems) and IL-10, MCP-1 and IL-6 were measured using an Immunoassay Kit (BIOSOURCE). Test compound A, the compound synthesized in Example 3 (test compound B) and the compound synthesized in Example 7 (test compound C) were dissolved in saline, and the mixture was orally administered at 10 mg/kg 30 min before LPS administration. As shown in the Tables, the effect of each test compound on respective […] cytokines was calculated as the ratio of each cytokine concentration in the blood of the group administered with each test compound to each cytokine concentration in the blood of the group free of administration of each test compound.

[1] = Evaluation of intracerebral transitivity in rat; type: in vivo, SD(IGS) rats; settings: for Kp value (ratio of plasma concentration and intracerebral concentration): 30 mg/kg orally
Method: The test compound A dissolved in 0.5% aqueous HPMC solution was orally administered at 30 mg/kg, and test compound B and test compound C dissolved in 0.5% aqueous HPMC solution were each orally administered at 3 mg/kg to SD(IGS) rats (Charles River Laboratories Japan). At 1 hr and 4 hr after the administration of the test compound, blood samples were collected, and the brain (cerebral•cerebellum) was isolated. The plasma concentration and intracerebral concentration of each test compound were measured, and the ratio (Kp value) thereof was calculated, based on which the intracerebral transitivity was evaluated.

CC(=O)NC1(c2ccc(CN3CCN(c4ncccn4)CC3)cc2)CC1.Cl [test compound A, N-(1-(4-((4-(pyrimidin-2-yl)piperazin-1-yl)methyl)phenyl)cyclopropyl)acetamide•hydrochloride]
MCP-1 production in LPS model mouse (in words) (MCP-1; 10 mg/kg orally 30 min before LPS): suppressed | MCP-1 production (%) (MCP-1; Table 2): 61.7% | MCP-1 production (%) (MCP-1; Table 3): 72.2% | Kp value (ratio of plasma concentration and intracerebral concentration) ([1]; 1 hr after administration): 0.5 | Kp value (ratio of plasma concentration and intracerebral concentration) ([1]; 4 hr after administration): 0.5 | intracerebral transitivity (in words) ([1]; orally, test compound A 30 mg/kg, test compounds B and C 3 mg/kg): intracerebrally transferred
